{"source": "patent US20250057993A1", "about": "“LABELED INHIBITORS OF PROSTATE SPECIFIC MEMBRANE ANTIGEN (PSMA), THEIR USE AS IMAGING AGENTS AND PHARMACEUTICAL AGENTS FOR THE TREATMENT OF PSMA-EXPRESSING CANCERS” (Universität Heidelberg, priority 2018, published 2025)", "key": {"[1]": {"assay": "In vivo fate and metabolization of 64Cu-chloride and 64Cu-CA003 (PET, radio-HPLC of tissue extracts)", "design": "species or system Swiss mice", "conditions": "10 min p.i., mouse without tumor", "experimental": "The metabolization in vivo was studied by radio-HPLC analysis. Female Swiss mice (n=3) without tumor were injected via the tail vein with ^64Cu-chloride (10 MBq in approximately 100 μL of 0.9% saline) or ^64Cu-CA003 (9 MBq, 0.30 nmol in approximately 100 μL of 0.9% saline). PET imaging was performed 10 min post injection and subsequently blood, the liver and the kidneys were harvested. The tissues were rinsed with precooled saline, blotted dry and treated with 2 mL of 0.1 M NH4OAc/EtOH (35:65). The tissues were homogenized using an Ultra-Turrax T8 (IKA Labortechnik, Germany). The samples were centrifuged for 10 min at 13,000 rpm (4° C.). Subsequently, the pellet and supernatant were separated and the relative activity was measured. The results are expressed as percent. Additionally, an aliquot of supernatant was prepared for HPLC measurement by precipitation of the proteins with ACN as described above. The sample was analyzed by radio-HPLC (0-100% ACN in 5 min, Monolith column), with a flow rate of 2 mL/min. Fractions were collected every ten seconds over the whole course of the chromatography and the relative activity of the samples was measured in a gamma-counter to reconstruct a chromatogram."}, "[2]": {"test_system": "C4-2 tumor xenograft", "assay": "Small-animal PET in C4-2 tumor bearing mice", "format": "in vivo, BALB/c nu/nu mouse", "experimental": "(§1) The in vivo experiments were carried out in accordance with the laws of the German Federal Republic. For PET imaging and biodistribution studies, male nude mice (Balb/c nu/nu mice) (19-23 g) were obtained from Charles River at 4-5 weeks of age and kept under specific-pathogen-free condition for 1 week prior to the study. The mice were housed with a 12-hour/12-hour light/dark cycle and had free access to water and food. The mice were anesthetized with 2% sevoflurane and inoculated subcutaneously on the right trunk with 5×10^7 C4-2 cells in 50% Matrigel in Opti-MEM I (1×) medium. Organ distribution studies were performed, when the size of the tumor was approximately 1 cm^3.\nFor small-animal PET imaging with various ^64Cu-labeled PSMA ligands, 0.2 nmol, 10 MBq of approximately 100 μL in 0.9% saline the radiolabeled compound were injected into a C4-2 tumor bearing mouse. The dynamic PET was recorded in a small animal PET scanner (Siemens Inveon D-PET, Malvern, PA USA). The SUV values were obtained from conventional (non-dynamic) PET images. The formula for the SUV was:\nThe volumes-of-interest (VOIs) were obtained by manual delineation of the appropriate whole tissue (heart, kidneys, bladder, tumor—with an approximate volume of 100-500 μl)—or parts of the tissue liver and muscle. […]"}, "[3]": {"assay": "In vivo metabolite analysis of 177Lu-labeled ligands (radio-HPLC of tissue extracts)", "design": "species or system BALB/c nude mouse", "conditions": "1 h p.i., 10 MBq, 0.2 nmol", "experimental": "FIG. 24. In vivo metabolite analysis of ^177Lu-CA028 in comparison with ^177Lu-PSMA-617 (10 MBq, 0.2 nmol in approximately 100 μl of 0.9% saline) in a BALB/c nude mouse (tumor) at 1 h p.i. […] This proves the integrity of the complex within the main distribution period."}, "[4]": {"assay": "Serum stability of 68Ga, 177Lu and 64Cu labeled compounds (iTLC, HPLC, pellet activity)", "format": "in vitro ADME", "conditions": "177Lu-labeled, human serum, 24 h", "experimental": "After radiolabeling of the compounds the serum stability was determined by iTLC and HPLC analysis. 50 μL (20 MBq) of the labeled ligands was added to 200 μL of human serum (H4522; Sigma-Aldrich, Germany) and incubated at 37° C. for different time-points (0, 2 h, 24 h, 48 h and 72 h). 0.5×5 cm strips of iTLC-SG-glass microfiber chromatography paper (Folsom, California USA) were used. 0.5 μL of the radiolabeled compound in serum was applied to each strip at 1 cm from the bottom (origin) and the solvent (sodium citrate buffer (0.5 M, pH=5.0) in case of ^177Lu ligands, (1% Na-EDTA, pH=4) in case of Cu labeled ligands) front was allowed to rise to 5 cm from the bottom. Finally, each strip was cut in 8 pieces; each piece was measured in a gamma-counter. For HPLC analysis an equal volume of ACN was added to the samples to precipitate the serum proteins. Subsequently, the samples were centrifuged for 10 min at 13,000 rpm and the pellet and supernatant were separated and the relative activity was measured. The results are expressed as percent. In addition, an aliquot of the supernatant was analyzed by radio-HPLC (0-100% ACN in 5 min, Monolith column), with a flow rate of 2 mL/min."}, "[5]": {"biological_target": "T1, PSMA (Homo sapiens, UniProt Q04609)", "T1 sequence (Q04609 whole entry)": "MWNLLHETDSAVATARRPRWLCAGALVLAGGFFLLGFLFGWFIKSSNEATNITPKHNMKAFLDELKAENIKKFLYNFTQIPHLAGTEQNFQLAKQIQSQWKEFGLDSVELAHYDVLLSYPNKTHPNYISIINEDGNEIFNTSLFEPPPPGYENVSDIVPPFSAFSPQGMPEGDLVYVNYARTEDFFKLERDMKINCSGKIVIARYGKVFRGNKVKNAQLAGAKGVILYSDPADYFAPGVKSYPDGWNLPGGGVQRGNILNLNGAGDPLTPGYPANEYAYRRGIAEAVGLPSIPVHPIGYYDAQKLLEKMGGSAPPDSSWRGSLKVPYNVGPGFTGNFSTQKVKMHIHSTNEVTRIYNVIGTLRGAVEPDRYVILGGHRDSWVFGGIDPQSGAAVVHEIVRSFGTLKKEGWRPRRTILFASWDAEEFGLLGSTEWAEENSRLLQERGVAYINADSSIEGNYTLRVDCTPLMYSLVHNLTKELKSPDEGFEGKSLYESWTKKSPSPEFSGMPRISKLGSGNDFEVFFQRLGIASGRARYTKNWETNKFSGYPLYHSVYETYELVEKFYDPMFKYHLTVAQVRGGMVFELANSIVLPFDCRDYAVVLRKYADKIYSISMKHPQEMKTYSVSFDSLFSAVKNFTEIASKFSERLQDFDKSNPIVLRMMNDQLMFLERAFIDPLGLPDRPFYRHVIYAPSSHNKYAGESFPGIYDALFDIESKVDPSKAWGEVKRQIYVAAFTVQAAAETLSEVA", "assay": "Competitive binding assay (Ki) on PSMA-positive C4-2 cells", "design": "host or cells: C4-2 cells", "conditions": "non-labeled ligands vs 0.75 nM 68Ga-PSMA-HBED-CC dimer", "experimental": "In vitro and in vivo experiments were performed using the PSMA-positive C4-2 cell line, a subline of the LNCaP (lymph node carcinoma of the prostate) cell line (CRL-3314; American Type Culture Collection). C4-2 cells were cultivated in RPMI 1640 (PAN Biotech) medium supplemented with 10% fetal calf serum and stable glutamine (PAN Biotech). Cells were grown at 37° C. and incubated with humidified air equilibrated with 5% CO2.\nA MultiScreenHTS-DV filter plate was incubated at room temperature with 100 μl PBS containing 1% BSA per well for 30 min. After removal of the PBS/BSA solution 1×10^5 C4-2 cells were added Opti-MEM to each well. […] All non-labeled compounds were dissolved in Opti-MEM at a volume of 300 μl with the following concentrations: 0, 0.5, 1, 2.5, 5, 10, 25, 50, 100, 500, 1000 and 5000 nM. Subsequently, 3 μl of the radiolabeled compound was added. 50 μl of this mixture was taken to obtain a 0.75 nM concentration of the radiolabeled ligand. After 45 min incubation at 37° C., the cells were washed twice with PBS on a multiscreen vacuum manifold (Millipore, Billerica, MA) and the cell-bound radioactivity was measured with a gamma counter (Packard Cobra II, GMI, Minnesota, USA). The inhibitory potency was determined using ^68Ga-labeled PSMA-HBED-CC dimer (i.e. PSMA-11) as reference. The Ki was calculated using a nonlinear regression algorithm (Graph Pad Prism 5.01 software). The experiments were performed in quadruplicate."}, "[6]": {"test_system": "C4-2 tumor", "assay": "Planar scintigraphic imaging of 203Pb-labeled compounds", "format": "in vivo, BALB/c nu/nu mice", "conditions": "tail vein injection", "experimental": "as §1\nFor small-animal imaging the mice were anesthetized with 2% sevoflurane. 0.1 nmol (1.0 MBq) of the ^203Pb-ligand was injected into the tail vein. Serial planar scans were performed using a Gamma Imager SCT (Biospace Lab, Paris, France) with a parallel collimator (35 mm/1.8 mm/0.2 mm) after 10 min, 1 h, 4 h, 24 h. and 72 h. Based on the imaging results, compound CA012 was chosen for biodistribution studies. Experiments were performed in triplicate."}, "[7]": {"biological_target": "T1, PSMA", "design": "PET/CT imaging in first patients was performed; from tissue; host or cells: tissues and tumour lesions of prostate cancer patients (in vivo PET/CT)", "conditions": "values from Afshar-Oromieh et al., 2015, cited from earlier work"}}, "note": "Where two headings read alike, the source gives them in different places."}
{"molecule": "[64Cu+2].[Cl-].[Cl-]", "note": "[^64Cu-chloride]", "values": [{"measurement": "blood circulation, maximum intensity projection PET", "setting": "[1]", "result": 1.3}, {"measurement": "kidney uptake, maximum intensity projection PET", "setting": "[1]", "result": 3.4}, {"measurement": "liver uptake, maximum intensity projection PET", "setting": "[1]", "result": 2.7}, {"measurement": "tumor-to-liver ratio", "setting": "[2]; 2 h", "result": 0.38}, {"measurement": "tracer accumulation in PET images (in words)", "setting": "[2]; C4-2 tumour bearing mice", "result": "very high liver accumulation"}]}
{"molecule": "O=C([O-])CN1CCN(CC(=O)[O-])CCN(CC(=O)NCC2CCC(C(=O)N[C@@H](Cc3ccc4ccccc4c3)C(=O)NCCCC[C@H](NC(=O)N[C@@H](CCC(=O)O)C(=O)O)C(=O)O)CC2)CCN(CC(=O)[O-])CC1.[177Lu+3]", "note": "(some centres unmarked) [^177Lu-PSMA-617]", "values": [{"measurement": "integrity of tracer in extracts from kidney, blood, liver and tumor (radio-HPLC)", "setting": "[3]", "result": "activity elutes at the retention time of the intact tracer"}]}
{"molecule": "O=C(O)CC[C@H](NC(=O)N[C@@H](CCCCNC(=O)[C@H](Cc1ccc2ccccc2c1)NC(=O)[C@H]1CC[C@H](CNC(=O)CN2CCN(CC(=O)O)CCN(CC(=O)O)CCN(CC(=O)O)CC2)CC1)C(=O)O)C(=O)O", "note": "[PSMA-617]", "values": [{"measurement": "free 177Lu", "setting": "[4]", "result": "no free activity"}]}
{"molecule": "NC(=O)CN1CCN(CC(N)=O)CCN(CC(=O)NCC2CCC(C(=O)NC(Cc3ccc4ccccc4c3)C(=O)NCCCCC(NC(=O)NC(CCC(=O)O)C(=O)O)C(=O)O)CC2)CCN(CC(N)=O)CC1", "note": "(centres unmarked) [CA012]", "values": [{"measurement": "Ki / binding affinity to PSMA (in words)", "setting": "[5]", "result": "highest affinity"}, {"measurement": "tumor uptake / retention in planar scintigraphy (in words)", "setting": "[6]", "result": "high uptake of the tracer in the tumor tissue"}]}
{"molecule": "O=C([O-])CN1CCN(CC(=O)[O-])CCN(CC(=O)NCC2CCC(C(=O)N[C@@H](Cc3ccc4ccccc4c3)C(=O)NCCCC[C@H](NC(=O)N[C@@H](CCC(=O)O)C(=O)O)C(=O)O)CC2)CCN(CC(=O)[O-])CC1.[68Ga+3]", "note": "(some centres unmarked) [^68Ga-PSMA-617]", "values": [{"measurement": "SUVmean Blood pool, mediastinal", "setting": "[7]; 1 h", "result": 2.5}, {"measurement": "SUVmean Bone met", "setting": "[7]; 1 h", "result": 9.4}, {"measurement": "SUVmean Colon", "setting": "[7]; 1 h", "result": 3.5}, {"measurement": "SUVmean Gluteal muscle", "setting": "[7]; 1 h", "result": 0.7}, {"measurement": "SUVmean Kidneys", "setting": "[7]; 1 h", "result": 15.6}, {"measurement": "SUVmean Lacrimal gland", "setting": "[7]; 1 h", "result": 4.9}, {"measurement": "SUVmean Liver", "setting": "[7]; 1 h", "result": 3.3}, {"measurement": "SUVmean Lymph node", "setting": "[7]; 1 h", "result": 7.1}, {"measurement": "SUVmean Nasal mucosa", "setting": "[7]; 1 h", "result": 2.9}, {"measurement": "SUVmean Parotid gland", "setting": "[7]; 1 h", "result": 10.4}, {"measurement": "SUVmean Prox. Small intestine", "setting": "[7]; 1 h", "result": 4.7}, {"measurement": "SUVmean Spleen", "setting": "[7]; 1 h", "result": 4.3}, {"measurement": "SUVmean Sublingual gland", "setting": "[7]; 1 h", "result": 4.6}, {"measurement": "SUVmean Submandibular gland", "setting": "[7]; 1 h", "result": 10}, {"measurement": "SUVmean Blood pool, mediastinal", "setting": "[7]; 3 h", "result": 2.4}, {"measurement": "SUVmean Bone met", "setting": "[7]; 3 h", "result": 6.3}, {"measurement": "SUVmean Colon", "setting": "[7]; 3 h", "result": 4.0}, {"measurement": "SUVmean Gluteal muscle", "setting": "[7]; 3 h", "result": 0.7}, {"measurement": "SUVmean Kidneys", "setting": "[7]; 3 h", "result": 17.0}, {"measurement": "SUVmean Lacrimal gland", "setting": "[7]; 3 h", "result": 5.9}, {"measurement": "SUVmean Liver", "setting": "[7]; 3 h", "result": 2.7}, {"measurement": "SUVmean Lymph node", "setting": "[7]; 3 h", "result": 13.5}, {"measurement": "SUVmean Nasal mucosa", "setting": "[7]; 3 h", "result": 3.4}, {"measurement": "SUVmean Parotid gland", "setting": "[7]; 3 h", "result": 13.1}, {"measurement": "SUVmean Prox. Small intestine", "setting": "[7]; 3 h", "result": 5.5}, {"measurement": "SUVmean Spleen", "setting": "[7]; 3 h", "result": 3.5}, {"measurement": "SUVmean Sublingual gland", "setting": "[7]; 3 h", "result": 4.0}, {"measurement": "SUVmean Submandibular gland", "setting": "[7]; 3 h", "result": 12.4}]}
{"molecule": "NC(=O)CN1CCN(CC(N)=O)CCN(CC(N)=O)C(Cc2ccc(NC(=S)NCC3CCC(C(=O)NC(Cc4ccc5ccccc5c4)C(=O)NCCCCC(NC(=O)NC(CCC(=O)O)C(=O)O)C(=O)O)CC3)cc2)CN(CC(N)=O)CC1", "note": "(centres unmarked) [CA009]", "values": [{"measurement": "Ki / binding affinity to PSMA (in words)", "setting": "[5]", "result": "highest affinity"}, {"measurement": "tumor uptake / retention in planar scintigraphy (in words)", "setting": "[6]", "result": "high uptake of the tracer in the tumor tissue"}]}
{"molecule": "O=C(O)CCC(NC(=O)NC(CCCCNC(=O)C(Cc1ccc2ccccc2c1)NC(=O)C1CCC(CNC(=S)Nc2ccc(CC3CN(CC(=O)O)CCN(CC(=O)O)CCN(CC(=O)O)CCN3CC(=O)O)cc2)CC1)C(=O)O)C(=O)O", "note": "(centres unmarked) [CA029]", "values": [{"measurement": "free 177Lu", "setting": "[4]", "result": "no free activity"}]}
{"molecule": "O=C(O)CCC(NC(=O)NC(CCCCNC(=O)C(Cc1ccc2ccccc2c1)NC(=O)C1CCC(CNC(=O)c2ccc(CN3CCCNCCNCCCNCC3)cc2)CC1)C(=O)O)C(=O)O", "note": "(centres unmarked) [CA003]", "values": [{"measurement": "Ki / binding affinity to PSMA (in words)", "setting": "[5]", "result": "particularly high affinity"}]}
